# Experimental data from patent US20070275935A1, “Estratriene Derivatives” (priority 2003, published 2007).
# Assays:
# [1] = system: GM-CSF production by Human Airway Smooth Muscle Cells; test: Interleukin-1α-mediated GM-CSF production by HASM cells (ELISA); type: cell-based; settings: inhibition of interleukin-1α (1 ng/ml)-mediated GM-CSF production; concentration not given; * not defined
# [2] = system: type II airway epithelial cell line, A549; test: Proliferation of A549 cells in response to 5% FCS; type: cell-based, human; settings: Homo sapiens, A549; proliferation in response to 5% FCS; pIC50 of 4.00 = inactive; read-out: A549 PIC50 (converted)
# Method: The effects of 4NO were evaluated in a number of non-smooth muscle cell types including the type II airway epithelial cell line, A549 (ATCC accession number ATCC CCL-185 Lung carcinoma human) (FIG. 2); the human breast tumour cell line, MCF7, (ATTC accession number ATCC HTB-22 breast adenocarcinoma, human) which expresses the estrogen receptor (FIG. 3); and in bovine aortic endothelial cells (BAEC) (FIG. 4).
# The effects of test compounds were examined on proliferation of A549 cells in response to 5% fetal calf serum (FCS). Analogues were pre-incubated with A549 cells for 30 min before the addition of FCS. The incubation continued for 48 h before cell enumeration. Data are expressed as a percentage of the cell number in vehicle treated wells and are presented as the mean and standard error of the mean. Similarly the effects of 2MEO and 4NO on proliferation of MCF7 in response to 5% FCS or epidermal growth factor (EGF, 300 pM) were examined, as were the effects of 2MEO and 4NO on proliferation of BAEC in response to 5% FCS. The incubation parameters were the same as described above and results are presented as the mean and standard error of the mean.
# This assay was also used to evaluate the ability of other compounds to inhibit the proliferation of non-smooth muscle cells MCF7 and A549 (described above) in response to 5% FCS. The results of this assay are presented in Table 4 (columns G and H respectively). The potency of the compounds was considerably less in inhibiting proliferation of these cell lines than it was for HASM. These observations support the contention that there are cell type-specific targets for the actions of these compounds. Such assays may also be adopted to examine the effect of other disclosed compounds on these cells or on other non-smooth muscle cells of interest.
# [3] = system: Human airway smooth muscle (HASM) cells; test: Thrombin-induced proliferation of human airway smooth muscle (HASM) cells, cell number after 48 h; type: cell-based; settings: for IC50: Homo sapiens, negative log of the concentration that reduces the thrombin-induced proliferative response by 50%, pIC50 of 4.00 = inactive, read-out: HASM-Thr pIC50 (converted); for HASM- Thr pIC25 / HASM- Thr pIC75: two site model, thrombin-induced proliferation; for HASM- Thr pIC25: first phase (inhibition up to 50%); for HASM- Thr pIC75: second phase (inhibition up to 100%)
# Method: Human airway smooth muscle (HASM) cells were cultured from macroscopically normal bronchi (0.5-2 cm diameter) obtained from lung resection or heart-lung transplant specimens provided by the Alfred Hospital (Melbourne) according to methods published in detail previously (Fernandes et al., 1999).
# Approximately 0.1 g of smooth muscle was stripped from the wall of the bronchus for each cell culture. Dissected tissue was immersed in Dulbecco's modified Eagle's medium (DMEM) (Flow Laboratories, Scotland), supplemented with 100 U/mL penicillin G (CSL, Australia) and 100 ug/mL streptomycin (CSL, Australia). The tissue was rinsed in phosphate buffered saline (PBS; Oxoid, England) and the airway smooth muscle was chopped into 2 mm^3 pieces and digested for 2 hours in DMEM containing elastase (0.5 mg/mL: Worthington Biochemical, USA) followed by a 12 hour incubation in DMEM containing collagenase (1 mg/mL) (Worthington Biochemical, USA), at 37° C. with agitation.
# The resulting cell suspension was centrifuged and washed three times in phosphate buffered saline (PBS). Following the last centrifugation step, the cells were resuspended in 25 mL of DMEM supplemented with L-glutamine (2 mM: Sigma, USA), penicillin G (100 U/mL), streptomycin (100 μg/mL), amphotericin B (2 μg/mL: Wellcome, UK) and heat-inactivated FCS (10% v/v: CSL, Australia) and seeded into 25 cm^2 culture flasks. The primary isolates were incubated for 7 to 14 days to reach confluence.
# Cells were harvested weekly by 10 min exposure to trypsin (0.5%: CSL, Australia) and EDTA (1 mM in PBS: BDH, Australia) and passaged at a 1:3 ratio into 75 cm^2 flasks.
# The activity of the compounds has been established in cell culture by exploring their effects on mitogen-induced increases in cell number. We investigated the effects of 2MEO and its analogues, 4NO and 4NOM, on the proliferation of HASM cells in response to the proliferative stimulus of either thrombin of basic fibroblast growth factor (bFGF). Cells were seeded onto 6-well plates at a density of 1.5×10^4 cells cm^2, made quiescent by removal of serum-containing media for 24 hours and then stimulated for 48 h with either thrombin (0.3 U/ml) or bFGF (300 pM). The test compounds were pre-incubated with HASM cells for 30 minutes before the addition of thrombin. At the end of the 48 hour incubation period, cells were detached from the culture plate by trypsin (0.5% w/v in PBS containing 1 mM EDTA), incubated for 5 minutes at ambient temperature in PBS containing 0.5% (w/v) trypan blue, washed twice (2% FCS in PBS), isolated by centrifugation (12,000×g, 5 min) and resuspended in 200 μl 2% FCS in PBS for counting in a haemocytometer chamber.
# Data are expressed as a percentage of the cell number in vehicle treated wells and are presented as the mean and standard error of the mean.
# The potency of the compounds in regulating thrombin-induced proliferation of human airway smooth muscle (HASM) was assessed in cells maintained in culture as described above. The potencies are presented as pIC50 values (Column A of Table 4) denoting the negative log of the concentration that reduces the proliferative response by 50%. […] When the single phase model was determined to be more appropriate, the values of pIC25 and pIC75 were not calculated or shown in the table.
# [4] = biological target: T1, Estrogen Receptor (ER) (Rattus norvegicus, UniProt P06211); test: Estrogen receptor binding assay, 3H-estradiol displacement from rat uterine cytosol; settings: 3H-estradiol displacement, cytosolic preparations of rat uterus; pIC50 of 4.00 = inactive; read-out: ER-RLB pIC50 (converted)
# T1 construct: using rat uterine cytosol as a source of ER; from tissue; host or cells: rat uterus, cytosol fraction (30000 x g supernatant)
# T1 sequence (P06211 1-600): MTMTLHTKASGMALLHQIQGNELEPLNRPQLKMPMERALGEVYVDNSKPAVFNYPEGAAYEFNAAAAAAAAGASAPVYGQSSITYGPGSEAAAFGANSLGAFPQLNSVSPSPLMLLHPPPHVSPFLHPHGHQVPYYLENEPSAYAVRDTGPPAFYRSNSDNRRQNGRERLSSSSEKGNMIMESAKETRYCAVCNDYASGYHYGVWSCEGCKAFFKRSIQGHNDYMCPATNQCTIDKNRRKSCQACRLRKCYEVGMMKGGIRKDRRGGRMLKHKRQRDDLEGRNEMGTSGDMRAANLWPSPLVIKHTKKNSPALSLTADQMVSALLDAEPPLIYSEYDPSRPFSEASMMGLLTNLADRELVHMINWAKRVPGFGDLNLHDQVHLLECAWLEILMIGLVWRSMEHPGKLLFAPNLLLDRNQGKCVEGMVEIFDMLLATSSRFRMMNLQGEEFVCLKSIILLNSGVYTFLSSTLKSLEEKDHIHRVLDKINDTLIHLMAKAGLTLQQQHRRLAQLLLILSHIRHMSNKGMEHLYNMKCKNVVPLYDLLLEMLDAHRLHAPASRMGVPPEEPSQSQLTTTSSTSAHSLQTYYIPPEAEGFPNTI
# Method: Uteri (6-10 per batch) were isolated from Brown Norway rats (250-350g), washed free from blood in saline and homogenised in 10 mM Tris buffer (pH 7.4, 1.5 mM EDTA, 10% w/v glycerol, 1 mM phenylmethylsulfonylfluoride) using an Ultra Turrax homogeniser for 3 by 15 s bursts with intervals of 1 min on ice.
# Nuclear material and cellular debris were removed by centrifugation at 750×g at 4° C. for 10 min (Sorvall RT7); the cytosol component was prepared by centrifugation at 30000×g for 120 min at 4° C. in a Beckman JM1 centrifuge. The cytosol was diluted to approximately 1 mg/ml protein (rat uterine extract) determined using the Bradford method (Biorad).
# Separation of bound from free radioligand was achieved by the addition of 500 μL of dextran-coated charcoal (400 mg dextran clinical grade C and 2g of charcoal, Norit A in 100 mL of Tris buffer) and centrifugation at 4° C. in a Sorval RT7 at 2000×g for 10 min.
# [5] = system: Pulmonary fibroblasts; test: bFGF-induced proliferation of human pulmonary fibroblasts; type: cell-based; settings: inhibition of bFGF (300 pM)-induced proliferation, mean and SEM, minimum 3 experiments; 1 μM; * not defined
# Method: Samples of parenchyma from human lung transplant recipients were dissected away from the pleura, chopped into fragments of less than 1 mm^2 and allowed to adhere to plastic culture dishes in a minimal volume of DMEM containing serum (10%) and antibiotics (as used for HASM culture). After the tissue fragments had adhered to the base of the dish additional medium was added. Medium was changed twice weekly until an explant culture formed, at which time the tissue fragments were removed and the cells were passaged in a 1:3 split ratio by exposure to trypsin weekly to produce pulmonary fibroblast cultures.
# Pulmonary fibroblasts were cultured in DMEM, serum-deprived for 24 h, in the presence or absence of the test compounds, and then stimulated with 300 pM bFGF for 48 h before harvest and counting of viable cells. An increase pulmonary fibroblast cell number was prevented by 4NOM over the concentration range of 1 to 1000 nM.
# A range of the disclosed compounds was subsequently examined using the above assay system, and the results are summarized in Column E of Table 4. […] The proliferation of parenchymal fibroblasts is important in the development of pulmonary fibrosis.
compound,measurement,setting,value
"COc1cc2c(cc1O)CC[C@@H]1[C@@H]2CC[C@]2(C)/C(=N/OCc3ccc([N+](=O)[O-])cc3)CC[C@@H]12 [CP-DM-3-103, 2-methoxyestrone-17-(4-nitrobenzyl)oxime]",HASM - GM-CSF,[1],either did not inhibit or produced less inhibition
same,IC50,[2],40.7 µM
same,IC50,[3],3.16 µM
"COc1cc2c(cc1O)/C(=N/OCc1cccc([N+](=O)[O-])c1)C[C@@H]1[C@@H]2CC[C@]2(C)/C(=N/O)CC[C@@H]12 [CP-DM-3-105, 2-methoxy-6-(3-nitrobenzyloxy)iminoestrone-17-oxime]",IC50,[2],5.13 µM
same,IC50,[3],0.1 µM
same,HASM- Thr pIC25,[3],8.85
same,HASM- Thr pIC75,[3],5.59
same,IC50,[4],25.1 µM
"COc1cc2c(cc1O)/C(=N/OCc1cccc([N+](=O)[O-])c1)C[C@@H]1[C@@H]2CC[C@]2(C)[C@@H](O)CC[C@@H]12 [CP-DM-3-106, 2-methoxy-6-(3-nitrobenzyloxy)iminoestradiol]",IC50,[2],7.59 µM
same,IC50,[3],0.0251 µM
same,HASM- Thr pIC25,[3],9.35
same,HASM- Thr pIC75,[3],6.36
same,IC50,[4],0.178 µM
"COc1ccc(CO/N=C2\C[C@@H]3[C@H](CC[C@]4(C)[C@@H](O)CC[C@@H]34)c3cc(OC)c(O)cc32)cc1 [CP-DM-4-5, 2-methoxy-6-(4-methoxybenzyloxy)-iminoestradiol]",IC50,[2],5.01 µM
same,IC50,[3],0.135 µM
same,HASM- Thr pIC25,[3],10.46
same,HASM- Thr pIC75,[3],5.27
same,IC50,[4],0.794 µM
"COc1cc2c(cc1O)/C(=N/OCc1cc(F)cc(F)c1)C[C@@H]1[C@@H]2CC[C@]2(C)/C(=N/O)CC[C@@H]12 [CP-DM-4-36, 6-(3,5-difluorobenzyloxy)imino-2-methoxyestrone-17-oxime]",IC50,[2],10 µM
same,IC50,[3],0.129 µM
same,HASM- Thr pIC25,[3],7.91
same,HASM- Thr pIC75,[3],5.69
same,IC50,[4],20 µM
"COc1cc2c(cc1O)/C(=N/OCc1ccc(C#N)cc1)C[C@@H]1[C@@H]2CC[C@]2(C)/C(=N/O)CC[C@@H]12 [CP-DM-4-38, 6-(4-cyanobenzyloxy)imino-2-methoxyestrone-17-oxime]",pFib - bFGF,[5],26 ± 26
same,HASM- Thr pIC25,[3],4.00
same,HASM- Thr pIC75,[3],4.00
"COc1cc2c(cc1O)/C(=N/OCc1ccc(OC(F)(F)F)cc1)C[C@@H]1[C@@H]2CC[C@]2(C)/C(=N/O)CC[C@@H]12 [CP-DM-4-68, 2-methoxy-6-(4-trifluoromethoxybenzyloxy)iminoestrone-17-oxime]",HASM - GM-CSF,[1],8 ± 13
same,IC50,[3],1.82 µM
same,HASM- Thr pIC25,[3],7.91
same,HASM- Thr pIC75,[3],5.00
"COc1cc2c(cc1O)/C(=N/OCc1ccc(SC(F)(F)F)cc1)C[C@@H]1[C@@H]2CC[C@]2(C)/C(=N/O)CC[C@@H]12 [CP-DM-4-69, 2-methoxy-6-(4-trifluoromethylthiobenzyloxy)iminoestrone-17-oxime]",pFib - bFGF,[5],87 ± 13*
same,HASM- Thr pIC25,[3],4.00
same,HASM- Thr pIC75,[3],4.00
"COc1cc2c(cc1O)/C(=N/OCc1ccc(C(C)C)cc1)C[C@@H]1[C@@H]2CC[C@]2(C)/C(=N/O)CC[C@@H]12 [CP-DM-4-77, 2-methoxy-6-(4-isopropylbenzyloxy)iminoestrone-17-oxime]",HASM - GM-CSF,[1],26 ± 13
same,IC50,[2],3.16 µM
same,IC50,[3],3.02 µM
"COc1cc2c(cc1O)/C(=N/OCc1ccc(C)cc1)C[C@@H]1[C@@H]2CC[C@]2(C)[C@@H](O)CC[C@@H]12 [CP-DM-4-78, 2-methoxy-6-(4-methylbenzyloxy)iminoestradiol]",HASM - GM-CSF,[1],35 ± 9*
same,IC50,[2],10 µM
same,IC50,[3],1 µM
same,IC50,[4],0.229 µM
"COc1cc2c(cc1O)/C(=N/OCc1ccc([N+](=O)[O-])cc1)C[C@@H]1[C@@H]2CC[C@]2(C)[C@@H](OC(C)=O)CC[C@@H]12 [CP-DM-4-91, 2-Methoxy-6-(4-nitrobenzyloxy)iminoestradiol-17-acetate]",IC50,[2],10 µM
same,IC50,[3],6.31 µM
